Assay results from PubChem BioAssay AID330 (DTP/NCI, 2004).
“And” between values parts separate entries of the source, which are not always exact repeats. Identical values can stand only once. Inconclusive results and toxic doses are left out.

Tested on: P388 leukemia ip, CD2F1 mice, survival T/C
Assay: NCI In Vivo Anticancer Drug Screen. Data for tumor model P388 Leukemia (intraperitoneal) in CD2F1 (CDF1) mice
Settings: endpoint: median survival time, higher = longer survival
In short: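 Mice carrying the transplanted tumor received test compound or vehicle. Survival was recorded in each group, and the value is the treated-group measurement divided by that of the vehicle-treated control group.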

[1] = dose: 50.0 mg/kg/injection, schedule: Q01DX005 (ip), vehicle: saline with Tween-80
[2] = dose: 100.0 mg/kg/injection, schedule: Q01DX005 (ip), vehicle: saline with Tween-80
[3] = dose: 200.0 mg/kg/injection, schedule: Q01DX005 (ip), vehicle: saline with Tween-80
[4] = dose: 50.0 mg/kg/injection, schedule: Q01DX009 (ip), vehicle: saline with Tween-80
[5] = dose: 100.0 mg/kg/injection, schedule: Q01DX009 (ip), vehicle: saline with Tween-80
[6] = dose: 200.0 mg/kg/injection, schedule: Q01DX009 (ip), vehicle: saline with Tween-80
[7] = dose: 60.0 mg/kg/injection, schedule: Q01DX005 (ip), vehicle: saline with Tween-80
[8] = dose: 25.0 mg/kg/injection, schedule: Q01DX001 (ip), vehicle: Klucel (hydroxypropylcellulose) (HPC)
[9] = dose: 50.0 mg/kg/injection, schedule: Q01DX001 (ip), vehicle: Klucel (hydroxypropylcellulose) (HPC)
[10] = dose: 60.0 mg/kg/injection, schedule: Q01DX005 (ip), vehicle: Klucel (hydroxypropylcellulose) (HPC)
[11] = dose: 120.0 mg/kg/injection, schedule: Q01DX005 (ip), vehicle: Klucel (hydroxypropylcellulose) (HPC)
[12] = dose: 240.0 mg/kg/injection, schedule: Q01DX005 (ip), vehicle: Klucel (hydroxypropylcellulose) (HPC)
[13] = dose: 50.0 mg/kg/injection, schedule: Q01DX005 (ip), vehicle: Klucel (hydroxypropylcellulose) (HPC)
[14] = dose: 100.0 mg/kg/injection, schedule: Q01DX005 (ip), vehicle: Klucel (hydroxypropylcellulose) (HPC)
[15] = dose: 200.0 mg/kg/injection, schedule: Q01DX005 (ip), vehicle: Klucel (hydroxypropylcellulose) (HPC)
[16] = dose: 100.0 mg/kg/injection, schedule: Q04DX003 (ip), vehicle: saline with Tween-80
[17] = dose: 200.0 mg/kg/injection, schedule: Q04DX003 (ip), vehicle: saline with Tween-80

## C=CCNC(=S)N/N=C(\C)c1cccc(C)n1
[1]
  T/C: 100 % of control
[2]
  T/C: 100 % of control
[3]
  T/C: 112 % of control

## CCN(CC)C(=O)c1cc2c(=O)c3c(ccc4ccccc43)oc2n(C)c1=O
[1]
  T/C: 98 % of control
[2]
  T/C: 90 % of control
[3]
  T/C: 90 % of control

## Nc1ncnc2c1ncn2C1OC(CO)C2OC(=S)OC21 (stereo not drawn)
dose: 25.0 mg/kg/injection, schedule: Q01DX009 (ip), vehicle: saline with Tween-80
  T/C: 96 % of control
[4]
  T/C: 101 % of control
[5]
  T/C: 100 % of control
[6]
  T/C: 100 % of control

## COc1ccc(-c2cc3ccccc3c(=O)n2Cc2ccccc2)cc1
[7]
  T/C: 100 % of control
dose: 120.0 mg/kg/injection, schedule: Q01DX005 (ip), vehicle: saline with Tween-80
  T/C: 103 % of control
dose: 240.0 mg/kg/injection, schedule: Q01DX005 (ip), vehicle: saline with Tween-80
  T/C: 94 % of control

## CC12CCC3c4ccc(OC(=O)C56C=CC(=O)C5C5C=CC6CC5)cc4CCC3C1CCC2=O (stereo not drawn)
dose: 25.0 mg/kg/injection, schedule: Q01DX005 (ip), vehicle: distilled water + Tween-80
  T/C: 91 % of control
dose: 50.0 mg/kg/injection, schedule: Q01DX005 (ip), vehicle: distilled water + Tween-80
  T/C: 95 % of control
dose: 100.0 mg/kg/injection, schedule: Q01DX005 (ip), vehicle: distilled water + Tween-80
  T/C: 87 % of control
dose: 200.0 mg/kg/injection, schedule: Q01DX005 (ip), vehicle: distilled water + Tween-80
  T/C: 95 % of control

## O=C1CSC(=S)N1c1ccc(C(F)(F)F)cc1
[8]
  T/C: 93 % of control
[9]
  T/C: 99 % of control
dose: 100.0 mg/kg/injection, schedule: Q01DX001 (ip), vehicle: Klucel (hydroxypropylcellulose) (HPC)
  T/C: 110 % of control

## CC(C)(C)c1ccc(N2CSC(=S)N(c3ccc(C(C)(C)C)cc3)C2)cc1
[4]
  T/C: 96 % of control
[5]
  T/C: 89 % of control
[6]
  T/C: 90 % of control

## COc1cc(=O)cc2n(c1=O)CCC2
dose: 60.0 mg/kg/injection, schedule: Q01DX005 (ip), vehicle: saline
  T/C: 94 % of control
dose: 120.0 mg/kg/injection, schedule: Q01DX005 (ip), vehicle: saline
  T/C: 94 % of control
dose: 240.0 mg/kg/injection, schedule: Q01DX005 (ip), vehicle: saline
  T/C: 92 % of control

## Cn1nnnc1/C=C/c1ccccc1
dose: 100.0 mg/kg/injection, schedule: Q04DX003 (ip), vehicle: Klucel (hydroxypropylcellulose) (HPC)
  T/C: 106 % of control
dose: 200.0 mg/kg/injection, schedule: Q04DX003 (ip), vehicle: Klucel (hydroxypropylcellulose) (HPC)
  T/C: 104 % of control
dose: 400.0 mg/kg/injection, schedule: Q04DX003 (ip), vehicle: Klucel (hydroxypropylcellulose) (HPC)
  T/C: 105 % of control

## CCOc1c2c(nn(C)c1=O)Oc1ccccc1N2CCCN1CCOCC1
dose: 15.0 mg/kg/injection, schedule: Q01DX005 (ip), vehicle: saline with Tween-80
  T/C: 96 % of control
dose: 30.0 mg/kg/injection, schedule: Q01DX005 (ip), vehicle: saline with Tween-80
  T/C: 90 % of control
[7]
  T/C: 104 % of control and 91 % of control

## Cn1c(=O)c2cc(C#N)c(N)nc2n(C)c1=O
dose: 75.0 mg/kg/injection, schedule: Q01DX009 (ip), vehicle: saline with Tween-80
  T/C: 104 % of control
dose: 150.0 mg/kg/injection, schedule: Q01DX009 (ip), vehicle: saline with Tween-80
  T/C: 96 % of control
dose: 300.0 mg/kg/injection, schedule: Q01DX009 (ip), vehicle: saline with Tween-80
  T/C: 93 % of control

## CC(CC(O)C(=O)O)CC(C)(C)C (stereo not drawn)
[1]
  T/C: 95 % of control
[2]
  T/C: 96 % of control
[3]
  T/C: 101 % of control

## CC1(C)N=C(N)N=C(N)N1c1cccc(OCCCOc2ccccc2)c1
dose: 12.5 mg/kg/injection, schedule: Q01DX001 (ip), vehicle: Klucel (hydroxypropylcellulose) (HPC)
  T/C: 101 % of control
[8]
  T/C: 100 % of control
[9]
  T/C: 102 % of control

## c1cc(NNc2cccc(-c3nn[nH]n3)c2)cc(-c2nn[nH]n2)c1
dose: 50.0 mg/kg/injection, schedule: Q01DX009 (ip), vehicle: Klucel (hydroxypropylcellulose) (HPC)
  T/C: 95 % of control
dose: 100.0 mg/kg/injection, schedule: Q01DX009 (ip), vehicle: Klucel (hydroxypropylcellulose) (HPC)
  T/C: 117 % of control
dose: 200.0 mg/kg/injection, schedule: Q01DX009 (ip), vehicle: Klucel (hydroxypropylcellulose) (HPC)
  T/C: 113 % of control

## CCOC(=O)c1ccccc1Nc1c(C(=O)OCC)cnc2cc3c(cc12)OCO3
[10]
  T/C: 106 % of control
[11]
  T/C: 98 % of control
[12]
  T/C: 97 % of control

## CCOC(=O)c1cnc(NCCCNc2ncc(C(=O)OCC)c(=O)[nH]2)[nH]c1=O
dose: 6.25 mg/kg/injection, schedule: Q01DX005 (ip), vehicle: Klucel (hydroxypropylcellulose) (HPC)
  T/C: 92 % of control
dose: 12.5 mg/kg/injection, schedule: Q01DX005 (ip), vehicle: Klucel (hydroxypropylcellulose) (HPC)
  T/C: 101 % of control
dose: 25.0 mg/kg/injection, schedule: Q01DX005 (ip), vehicle: Klucel (hydroxypropylcellulose) (HPC)
  T/C: 104 % of control
[13]
  T/C: 105 % of control
[14]
  T/C: 106 % of control
[15]
  T/C: 88 % of control

## COc1nc2c(=O)[nH]c(N)nc2n1C1OC(CO)C(O)C1O (stereo not drawn)
[5]
  T/C: 98 % of control
[6]
  T/C: 113 % of control
dose: 400.0 mg/kg/injection, schedule: Q01DX009 (ip), vehicle: saline with Tween-80
  T/C: 116 % of control

## Cc1nnc(SCC2=C(C(=O)O)N3C(=O)C(NC(=O)Cn4cc(Cl)c(=O)c(Cl)c4)C3SC2)s1 (stereo not drawn)
dose: 50.0 mg/kg/injection, schedule: Q01DX009 (ip), vehicle: water
  T/C: 105 % of control
dose: 100.0 mg/kg/injection, schedule: Q01DX009 (ip), vehicle: water
  T/C: 101 % of control
dose: 200.0 mg/kg/injection, schedule: Q01DX009 (ip), vehicle: water
  T/C: 100 % of control

## CC1C=CC(C)N(c2nnnn2C)N1c1nnnn1C (stereo not drawn)
[16]
  T/C: 116 % of control
[17]
  T/C: 106 % of control
dose: 400.0 mg/kg/injection, schedule: Q04DX003 (ip), vehicle: saline with Tween-80
  T/C: 100 % of control

## CC(C)[NH-].CC(C)[NH-].O.O.[Cl][Pt+2][Cl]
dose: 8.0 mg/kg/injection, schedule: Q01DX009 (ip), vehicle: saline with Tween-80
  T/C: 167 % of control
dose: 12.5 mg/kg/injection, schedule: Q01DX009 (ip), vehicle: saline with Tween-80
  T/C: 184 % of control
dose: 18.0 mg/kg/injection, schedule: Q01DX009 (ip), vehicle: saline with Tween-80
  T/C: 202 % of control

## CC(=O)/C=C/C=C\C=C/N=C(c1ccccc1)c1ccccc1
dose: 50.0 mg/kg/injection, schedule: Q04DX003 (ip), vehicle: saline with Tween-80
  T/C: 95 % of control
[16]
  T/C: 93 % of control
[17]
  T/C: 93 % of control

## O=C(O)c1cc2cc3c(cc2c2ccccc12)OCO3
[13]
  T/C: 100 % of control
[14]
  T/C: 106 % of control
[15]
  T/C: 108 % of control

## C=CC1=NC(C)(C)CC(C)O1 (stereo not drawn)
dose: 1.56 mg/kg/injection, schedule: Q01DX009 (ip), vehicle: water
  T/C: 104 % of control
dose: 3.13 mg/kg/injection, schedule: Q01DX009 (ip), vehicle: water
  T/C: 107 % of control
dose: 6.25 mg/kg/injection, schedule: Q01DX009 (ip), vehicle: water
  T/C: 116 % of control
dose: 12.5 mg/kg/injection, schedule: Q01DX009 (ip), vehicle: water
  T/C: 109 % of control

## COc1cccc(C2c3cc4c(cc3OC(C)(O)C2C)OCO4)c1O (stereo not drawn)
[10]
  T/C: 96 % of control
[11]
  T/C: 98 % of control
[12]
  T/C: 93 % of control
